Source: patent US9006185B2, “Use of cell-permeable peptide inhibitors of the JNK signal transduction pathway for the treatment of various diseases” (Xigen Inflammation Ltd., priority 2008, dated 2015)
“Also recorded” adds a separate entry of the source.

Key:
Jurkat cells = assay: PMA & ionomycin-induced cytokine production in Jurkat cells; format: cell-based
[1] = tested on: Varicella-Zoster Virus (VZV); assay: Plaque reduction assay against VZV in HFFs; format: cell-based, human; details: for Spread of VZV (pfu) ± SD: 24 hours
Description: Additionally, inhibitors of cell functions may be toxic to cells, which could non-specifically prevent virus growth. […] Since this may falsify the results, a cytotoxicity assay was carried out first, determining the tolerance of the cultured cells to the test compound. Subsequently, a plaque reduction assay was carried out and then activity of the JNK inhibitor peptide XG-102 (SEQ ID NO: 11) was tested with respect to […] (VZV) in infected cells. • A) Determination of the Cytotoxicity of all-D Retro-Inverso Ib(s) Peptides: • For determination of toxicity, cultured cells (human foreskin fibroblasts (HFFs)) were seeded in 96-well tissue culture plates. Medium containing DMSO (same level as 5 μM XG-102 (SEQ ID NO: 11)), or XG-102 (SEQ ID NO: 11) was added at several concentrations of (1, 2, and 5 μM) for 24 h. Subsequently, a Neutral Red assay was carried out. Neutral Red colorimetric assays for cytotoxicity assays (in sets of 6 replicates) were used to set the maximum dose for subsequent efficacy assays (as performed in Taylor et al, 2004, J. Virology, 78:2853-2862). Live cells absorb Neutral Red and, accordingly, the level of absorbance is a quantitative measure of cell viability and number. Neutral Red uptake is directly proportional to the number of cells and also reflects normal endocytosis. Therefore, a brief pulse of Neutral Red was added to the medium at 0 or 24 hours. After fixation and extraction, dye was added and the amount of dye in each sample was measured in an ELISA plate reader at 540 nm (see FIG. 4). […] In this plaque reduction assay, confluent human foreskin fibroblasts (HFFs) in 24-well plates were inoculated with VZV-infected HFFs at a ratio of 1:100 (multiplicity of infection MOI=0.01) and adsorbed to the cells for 2 hours. The excess virus was washed out, and medium containing 0 (DMSO only), 0.5, 1, or 2 μM XG-102 (SEQ ID NO: 11) was added. One sample was taken at this time to measure the initial level of infection; wherein each well contained ˜150 pfu. After 24 hours, duplicate wells were trypsinized, and then the cell suspensions were titered on MeWo cell monolayers in triplicate to determine the number of VZV-infected cells in each sample. During unrestricted growth, VZV usually increases by 10-fold over 1 day because it propagates by cell-cell spread. […]

hAPP Tg mice = assay: Plaque load by 6E10 immunohistochemistry and ThioflavinS staining in hAPP Tg mice; format: in vivo
Description: iv) Treatment • Forty female hAPP transgenic mice were treated with either 0.1 mg/kg b.w./every two weeks or 10 mg/kg b.w./every three weeks of the test substance XG-102 (SEQ ID NO: 11) in two different dosages (n=12/group) or treated with the vehicle (n=12) s.c. once every three weeks over four months.
viii) Evaluation of Brain Morphology • Brain tissues of all Tg animals investigated were handled in exactly the same way to avoid bias due to variation of this procedure. From brain halves of 24 Tg mice (8 of each group) 20 cryo-sections per layer (altogether 5 layers), each 10 μm thick (Leica CM 3050S) were sagittally cut and 5 (one from each layer) were processed and evaluated for quantification of plaque load. The five sagittal layers corresponded with the FIGS. 104 to 105, 107 to 108, 111 to 112, 115 to 116 and 118 to 119 according to the morphology atlas “The Mouse Brain” from Paxinos and Franklin (2nd edition). The first layer was specified by the requirement to include the whole hippocampus with it's regions CA1, CA2, CA3, GDIb and GDmb. Immunoreactivity was quantitatively evaluated in the hippocampus and in the cortex using the monoclonal human Aβ-specific antibody 6E10 (Signet) as well as ThioflavinS staining. Remaining brain hemispheres or tissue not used were saved and stored at JSW CNS until the end of the project. b) Evaluation
iii) Histology • i1) Measurement of Amyloid Depositions and Plaque Load • For 6E10 immunohistochemistry the following evaluation procedure was used: • aa) Contrasting the image for visualization of slice borders without applying the contrast on the image. • bb) Interactive drawing of the cortical outlines and the following measurement of the cortical area (=region area). • cc) Interactive drawing of the area of interest (AOI), in which stained objects are detected over a certain intensity based threshold level (the same for each image) and above a size of 8 μm^2. • dd) Measurement of the area of each object, the sum of stained area in the AOI as well as the number of objects after a smooth contrasting to enhance signal/noise ratio (the same for each image). • ee) Repetition of aa)-dd) for the hippocampus. • ff) Calculation of the mean plaque size (=“sum area of plaques/number of plaques”), the relative plaque number and area (=“number of plaques/region area” and “sum area of plaques/region area*100”). • gg) Automated data export into an Excel spread sheet, including the parameters “image title, region area, number of plaques, sum of plaque area, relative plaque number, relative plaque area and mean plaque size. A field for remarks was used to record image quality and exclusion criteria, respectively. Exclusion criteria were missing parts of the slice, many wrinkles, dominant flaws or staining inconsistencies (e.g. due to bulges, which can impede the full reaction of the blocking reagent). • hh) Closing the image without saving (to keep raw data raw). c) Results

Description for db/db mice: i) Animals • A total of twenty (20) male db/db mice (8 weeks old) were obtained from Charles River (Germany). Upon arrival, animals were group housed (n=6-7/group) and offered regular rodent chow (Altromin standard #1324 chow; C. Petersen, Ringsted, Denmark) and water ad libitum unless otherwise stated. • The mice were housed under a 12:12 L/D cycle (lights on at 4:00 and lights off at 16:00) and in temperature and humidity controlled rooms.
ii) Groups and Randomization • On day 4, mice were randomized according to blood glucose level (fasted; blood glucose measured on Biosen S line analyzer (EKF diagnostic, Germany) to participate in one of the following drug treatment groups (n=6): • 1) Vehicle control, S.C. […] Drug purity: 95.28%, peptide content: 78.0%. All compounds were administered sub-cutaneously (s.c.) in a volume of 3 ml/kg. […] The formulations (concentrations of 0.33 and 3.3 mg/ml, corresponding to the doses of 1 and 10 mg/kg, respectively) were prepared according to the procedure detailed below. […] Aliquots are prepared for each treatment day and stored at approximately −80° C. Dilutions of this stock solution to the required concentrations are performed on each treatment day; • Storage of the stock solution: at approximately −80° C.; • Storage of the diluted preparations: at room temperature for 24 hours maximum. • Prior to solubilisation, the powder was stored at −20° C. The stability of the stock solution is 3 months at approximately −80° C.; the stability of the diluted formulations for animal dosing is 24 hours at room temperature. Unused diluted material could be stored for up to 7 days if kept at 4-8° C. c) Experimental Procedure
Following 8 days of acclimatization the mice were treated daily at 08.00 AM for 21 days by SC dosing 8 hours prior to lights out at 04.00 PM according to the outline groups.
i) Blood Glucose • Blood glucose was measured from 7 hour fasted animals 6 hours post dosing by collection of 10 μl blood samples from the tail-vein in hematocrite tubes and subsequent analysis on a Biosen s-line analyzer (EKF-diagnostic; Germany).
ii) Metabolic Cages • Groups 1+3: Mice were placed in metabolic cages for the recording of 24-hour food and water intake as well as 24-hour urine and feces production. Mice were stratified into two sub-teams of n=6-7 and subsequently the metabolic characterisation were performed on study days 71-72.
iii) Adipokine Panel • Groups 1+3: On three occasions (study days 57, 66 and 108) blood was collected from the tail vein using EDTA coated hematocrite tubes (100 μl). Following centrifugation of blood the plasma was collected and stored at −20° C. until measurement. Then, the following panel of adipokines/cytokines was determined using Luminex based 7-plex: leptin, resistin, MCP-1, PAI-1, TNF, insulin and interleukin-6 (IL-6).
iv) Termination • Groups 1+3 (day 111): The following organs were excised and weighed: inguinal subcutaneous fat, epididymal fat, retroperitoneal fat, brain, liver, kidney, spleen and heart. All organs described above were samples in 4% PFA for possible future histo-pathological examination. Also, pancreas (en bloc) was sampled for possible stereological and immunohistochemical analysis, and eyes were sampled for possible later analysis of retinopathy. Group 2 (day 28): No tissues or plasma were collected. c) Results

CC(C)C[C@@H](NC(=O)[C@@H](Cc1ccccc1)NC(=O)[C@H]1CCCN1C(=O)[C@@H](CCC(N)=O)NC(=O)[C@H](NC(=O)[C@H]1CCCN1C(=O)[C@@H](CCCNC(=N)N)NC(=O)[C@@H](CO)NC(=O)[C@@H](CCC(N)=O)NC(=O)[C@H](N)CC(=O)O)C(C)C)C(=O)N[C@H](CC(N)=O)C(=O)N[C@H](CC(C)C)C(=O)N[C@@H](C(=O)N[C@@H](C(=O)N1CCC[C@@H]1C(=O)N[C@H](CCCNC(=N)N)C(=O)N[C@H](CCCCN)C(=O)N1CCC[C@@H]1C(=O)N[C@H](CCCNC(=N)N)C(=O)N1CCC[C@@H]1C(=O)N1CCC[C@@H]1C(=O)N[C@H](CCCNC(=N)N)C(=O)N[C@H](CCCNC(=N)N)C(=O)N[C@H](CCCNC(=N)N)C(=O)N[C@H](CCC(N)=O)C(=O)N[C@H](CCCNC(=N)N)C(=O)N[C@H](CCCNC(=N)N)C(=O)N[C@H](CCCCN)C(=O)N[C@H](CCCCN)C(=O)N[C@H](CCCNC(=N)N)C(=O)NCC(=O)O)[C@H](C)O)[C@H](C)O [XG-102]
fasting blood glucose (db/db mice; 1 mg/kg s.c., 28 days of dosing): no effect
body weight (db/db mice; 1 mg/kg, 28 days of dosing): no effect
fasting blood glucose, low plateau (db/db mice; 10 mg/kg s.c.): approximately 5 mmol/L
fasting blood glucose vs vehicle control (db/db mice; 10 mg/kg s.c. daily for 21 days, then wash-out to day 111): clear and significant (p<0.001) decrease in the level of fasting blood glucose
plasma levels of insulin, MCP-1, IL-6, tPAI-1, TNF (db/db mice; 10 mg/kg, day 57, 77 and 108): no significant effects
plasma resistin (db/db mice; 10 mg/kg, day 77 and 108): significantly higher
body weight vs vehicle control (db/db mice; 10 mg/kg, from day 28 to day 111): clear and significant (p<0.001) prevention of body weight increase
24 hour food and water intake, urine and feces production (metabolic cages) (db/db mice; 10 mg/kg, study day 68): no significant effects
tissue weight of epididymal and retroperitoneal fat pads (db/db mice; 10 mg/kg, termination day 111): significant decrease of epididymal (p<0.05) and retroperitoneal (p<0.01) fat mass
tissue weight of kidney and liver (db/db mice; 10 mg/kg, termination day 111): significant decrease of kidney (p<0.05) and liver (p<0.01) mass
alertness, activity, sedation (db/db mice; mouse, in vivo): no signs of sedation
PMA & ionomycin-induced IFNg, IL-6 and IL-2 production (Jurkat cells): inhibits cytokine release in both myeloid and lymphoid cell lines
Spread of VZV (pfu) ± SD ([1]; 0.5 μM): 260 ± 53 pfu
Spread of VZV (pfu) ± SD ([1]; 1.0 μM): 212 ± 48 pfu
Spread of VZV (pfu) ± SD ([1]; 2.0 μM): 312 ± 79 pfu
antiviral effect against VZV ([1]; 0.5, 1, 2 μM): potent inhibitor of Varizella Zoster Virus (VZV); also recorded: strong antiviral effect at all the concentrations tested
VZV yields ([1]; all the concentrations tested (0.5-2 μM)): 200-300 pfu
mean plaque size (ThioflavinS, hippocampus) (hAPP Tg mice; 0.1 mg/kg): reduced mean plaque size, however this effect did not reach significance level
cortical 6E10 IR plaque load (hAPP Tg mice; 10 mg/kg): increased versus vehicle
ThioflavinS plaque area [%] in the hippocampus (hAPP Tg mice; mouse, in vivo): significantly reduced the area obtained by plaques in the hippocampus
cortical plaque load (ThioflavinS) (hAPP Tg mice; mouse, in vivo): cortical plaque load remained unchanged
number of hippocampal ThioflavinS positive plaques (hAPP Tg mice; p<0.05 for 10 mg/kg, p<0.01 for 0.1 mg/kg): reduced the number of plaques negatively dose-dependent in the hippocampus; also recorded: a negatively dose dependent reduction of the number of hippocampal ThioflavinS positive plaques
